Measured values: ChEMBL document CHEMBL1128772, “Methylenedioxyphenyl substituted compounds from Piper species as inhibitors of liver microsome-mediated aflatoxin B1-DNA binding in vitro” (Bioorg Med Chem Lett, 1995)

How the values were obtained:
Nucleic Acid [1] = assay: In vitro binding affinity to rat liver microsome-mediated AFB1-DNA using [3H]- AFB1 radioligand assay at concentration of 10 uM; type: microsomes
Nucleic Acid [2] = assay: In vitro binding affinity to rat liver microsome-mediated AFB1-DNA using [3H]- AFB1 radioligand assay at concentration of 100 uM; type: microsomes
Nucleic Acid [3] = assay: In vitro binding affinity to rat liver microsome-mediated AFB1-DNA using [3H]- AFB1 radioligand assay at concentration of 50 uM
Nucleic Acid [4] = assay: Tested in vitro for inhibition of rat liver microsome-mediated AFB1-DNA at concentration of 10 uM; type: microsomes
Nucleic Acid [5] = assay: Tested in vitro for inhibition of rat liver microsome-mediated AFB1-DNA at concentration of 100 uM; type: microsomes
Nucleic Acid [6] = assay: Tested in vitro for inhibition of rat liver microsome-mediated AFB1-DNA at concentration of 50 uM; type: microsomes

SMILES	Binding (pM 30min-1 (mg of DNA)-1) (Nucleic Acid [1])	Binding (pM 30min-1 (mg of DNA)-1) (Nucleic Acid [2])	Binding (pM 30min-1 (mg of DNA)-1) (Nucleic Acid [3])	inhibition (Nucleic Acid [4])	inhibition (Nucleic Acid [5])	inhibition (Nucleic Acid [6])
COC(=O)/C=C/C=C/c1ccc2c(c1)OCO2	110	50.7	76	16%	61%	42%
C=CCC1=C[C@]2(OC)[C@H](C)[C@@H](c3ccc4c(c3)OCO4)O[C@]2(OC)C[C@@H]1O	91	24.8	48	31%	81%	64%
C=CCC1=C[C@]2(OC)[C@H](C)[C@@H](c3ccc4c(c3)OCO4)O[C@]2(OC)CC1=O	127	108	110	9%	23%	21%
C=CCC1=C[C@@](OC)([C@H](C)Cc2ccc3c(c2)OCO3)C(OC)=CC1=O	124	122	123	11%	13%	12%
O=C(/C=C/C=C/c1ccc2c(c1)OCO2)N1CCCCC1	96.6	56.6	70	27%	57%	47%
c1cc2c(cc1[C@H]1OC[C@H]3[C@@H]1CO[C@H]3c1ccc3c(c1)OCO3)OCO2	105	68.2	76.5	21%	48%	42%
